Experimental data: US9216968B2, “Heterocyclic derivative and pharmaceutical drug” (NIPPON SHINYAKU CO., LTD., priority 2011, dated 2015)
Structures can show the parent of a compound that is named as a salt.

Assays:
A549 cells = assay: Inhibition of PGE2 production in A549 cell (IL-1β stimulated); format: cell-based, human; settings: Homo sapiens, A549, 24 h, IL-1β 5 ng/well, PGE2 in culture medium
Procedure: Human A549 cells were seeded onto a 96-well plate at 2×10^4 cells/100 μL per well and allowed to incubate overnight. After removing the culture medium and washing with phosphate buffered saline, the culture medium was replaced by RPMI culture medium with 3% FBS containing a DMSO solution containing test compound or DMSO alone (such that DMSO final concentration would be […] in each). After incubation for 60 minutes, IL-1β (5 ng/well) was added and incubated at 37° C. for 24 hours. Then, PGE2 in the culture medium was measured using HTRF kit (Cisbio International, catalogue #62P2APEC), and PGF2α in the culture medium was measured using EIA kit (Cayman Chemical Company, catalogue #516011). The solution free of test compound was used as positive control, and the solution free of test compound and IL-1β was used as negative control. 100% activity was defined as PGE2 and PGF2α production in the positive control minus PGE2 and PGF2α production in the negative control. IC50 value was calculated by standard method.

human mPGES-1 = human mPGES-1 (Homo sapiens (Human), UniProt O14684); assay: mPGES-1 inhibiting activity (microsome fractions, PGE2 by HTRF); format: biochemical; settings: microsomes from CHO-K1 cells transfected with human mPGES-1; PGH2 1 μM, 4° C., 60 seconds; read-out: mPGES-1 Inhibition IC50
Procedure: mPGES-1 microsome fractions were prepared from CHO-K1 cells transiently transfected with plasmid encoding the human mPGES-1cDNA. Microsomes were diluted with potassium phosphate buffer containing reduced glutathione (pH7.4), and DMSO containing test compound or DMSO alone was added (such that DMSO final concentration would be 1% in each) and incubated at 4° C. for 20 minutes. Then, the enzymatic reactions were initiated by the addition of PGH2 substrate (final concentration 1 μM) and incubated at 4° C. for 60 seconds. The reaction was terminated by the addition of a citrate solution (final citrate concentration 50 mM) containing ferric chloride (final concentration 1 mg/mL). PGE2 production in the enzyme reaction aliquot was measured using HTRF kit (Cisbio International, catalogue #62P2APEC). The solution free of test compound was used as positive control, and the solution free of test compound and microsome sample was used as negative control. 100% activity was defined as PGE2 production in the positive control minus PGE2 production in negative control. IC50 value was calculated by standard method.

human mPGES-1, sequence (O14684 whole entry): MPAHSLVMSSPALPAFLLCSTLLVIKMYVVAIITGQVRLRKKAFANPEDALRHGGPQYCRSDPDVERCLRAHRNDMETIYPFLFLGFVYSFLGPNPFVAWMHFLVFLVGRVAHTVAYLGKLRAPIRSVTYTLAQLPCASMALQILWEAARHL

Row | Structure (SMILES) | IC50 (A549 cells) | IC50 (human mPGES-1)
1 | Cc1c(Cl)cccc1NC(=O)c1cc(NC(=O)c2ccccc2C(F)(F)F)cc2[nH]c(N3CC(O)C3)nc12 [Example 148, N-(3-Chloro-2-methylphenyl)-2-(3-hydroxyazetidin-1-yl)-6-({[2-(trifluoromethyl)phenyl]carbonyl}amino)-1H-benzimidazole-4-carboxamide hydrochloride] | 324 nM | 1.9 nM
2 | COCc1nc2c(C(=O)Nc3ccc(C)cc3Cl)cc(NC(=O)c3ccccc3C(F)(F)F)cc2[nH]1 [Example 30, N-(2-Chloro-4-methylphenyl)-2-(methoxymethyl)-6-({[2-(trifluoromethyl)phenyl]carbonyl}amino)-1H-benzimidazole-4-carboxamide hydrochloride] | 210 nM | 1.8 nM
3 | Cc1c(Cl)cccc1NC(=O)c1cc(NC(=O)c2ccccc2C(F)(F)F)cc2[nH]c(C3CC3)nc12 [Example 83, N-(3-Chloro-2-methylphenyl)-2-cyclopropyl-6-({[2-(trifluoromethyl)phenyl]carbonyl}amino)-1H-benzimidazole-4-carboxamide hydrochloride] | 16.5 nM | 9.8 nM
4 | Cc1c(Cl)cccc1NC(=O)c1cc(NC(=O)c2c(F)cccc2Cl)cc2[nH]c(C3CCCC3)nc12 [Example 126, 6-{[(2-Chloro-6-fluorophenyl)carbonyl]amino}-N-(3-chloro-2-methylphenyl)-2-cyclopentyl-1H-benzimidazole-4-carboxamide hydrochloride] | 13.1 nM | 5.6 nM
5 | COCC(C)(C)CNc1nc2c(C(=O)Nc3cccc(Cl)c3C)cc(NC(=O)c3cc(Cl)ccc3Cl)cc2[nH]1 [Example 190, N-(3-Chloro-2-methylphenyl)-6-{[(2,5-dichlorophenyl)carbonyl]amino}-2-[(3-methoxy-2,2-dimethylpropyl)amino]-1H-benzimidazole-4-carboxamide hydrochloride] | 7 nM | 0.1 nM
6 | COCc1nc2c(C(=O)Nc3cccc(Cl)c3C)cc(NC(=O)c3c(F)cccc3Br)cc2[nH]1 [Example 103, 6-{[(2-Bromo-6-fluorophenyl)carbonyl]amino}-N-(3-chloro-2-methylphenyl)-2-(methoxymethyl)-1H-benzimidazole-4-carboxamide hydrochloride] | 59.6 nM | 2.8 nM
7 | Cc1c(Cl)cccc1NC(=O)c1cc(NC(=O)c2ccc(Cl)cc2Cl)cc2[nH]c(N(C)C)nc12 [Example 184, N-(3-Chloro-2-methylphenyl)-6-{[(2,4-dichlorophenyl)carbonyl]amino}-2-(dimethylamino)-1H-benzimidazole-4-carboxamide hydrochloride] | 138 nM | 1 nM
8 | CNCc1nc2c(C(=O)Nc3cccc(Cl)c3C)cc(NC(=O)c3ccccc3C(F)(F)F)cc2[nH]1 [Example 62, N-(3-Chloro-2-methylphenyl)-2-[(methylamino)methyl]-6-({[2-(trifluoromethyl)phenyl]carbonyl}amino)-1H-benzimidazole-4-carboxamide dihydrochloride] | 51.6 nM | 11 nM
9 | Cc1c(Cl)cccc1NC(=O)c1cc(NC(=O)c2ccccc2C(F)(F)F)cc2[nH]c(NC[C@H]3CCCO3)nc12 [Example 169, N-(3-Chloro-2-methylphenyl)-2-{[(2R)-tetrahydrofuran-2-ylmethyl]amino}-6-({[2-(trifluoromethyl)phenyl]carbonyl}amino)-1H-benzimidazole-4-carboxamide hydrochloride] | 88.6 nM | 2.4 nM
10 | COCc1nc2c(C(=O)Nc3ccc(C)c(Cl)c3)cc(NC(=O)c3ccccc3C(F)(F)F)cc2[nH]1 [Example 32, N-(3-Chloro-4-methylphenyl)-2-(methoxymethyl)-6-({[2-(trifluoromethyl)phenyl]carbonyl}amino)-1H-benzimidazole-4-carboxamide hydrochloride] | 71.7 nM | 5.2 nM
11 | Cc1c(Cl)cccc1NC(=O)c1cc(NC(=O)c2cc(Cl)ccc2Cl)cc2[nH]c(N(C)C)nc12 [Example 185, N-(3-Chloro-2-methylphenyl)-6-{[(2,5-dichlorophenyl)carbonyl]amino}-2-(dimethylamino)-1H-benzimidazole-4-carboxamide hydrochloride] | 5.6 nM | 4.5 nM
12 | COCc1nc2c(C(=O)Nc3cccc(Cl)c3C)cc(NC(=O)c3cccc(F)c3Cl)cc2[nH]1 [Example 100, 6-{[(2-Chloro-3-fluorophenyl)carbonyl]amino}-N-(3-chloro-2-methylphenyl)-2-(methoxymethyl)-1H-benzimidazole-4-carboxamide hydrochloride] | 122 nM | 33.3 nM
13 | Cc1c(Cl)cccc1NC(=O)c1cc(NC(=O)c2ccccc2C(F)(F)F)cc2[nH]c(NCCOC(C)(C)C)nc12 [Example 176, 2-[(2-tert-Butoxyethyl)amino]-N-(3-chloro-2-methylphenyl)-6-({[2-(trifluoromethyl)phenyl]carbonyl}amino)-1H-benzimidazole-4-carboxamide hydrochloride] | 138 nM | 0.3 nM
14 | O=C(Nc1cc(C(=O)NC2CCCCC2)c2[nH]ncc2c1)c1ccccc1C(F)(F)F [Example 9, N-Cyclohexyl-5-({[2-(trifluoromethyl)phenyl]carbonyl}amino)-1H-indazole-7-carboxamide] |  | 452 nM
15 | COCc1nc2c(C(=O)Nc3cccc(Cl)c3C)cc(NC(=O)c3ccc(C(F)(F)F)cc3C(F)(F)F)cc2[nH]1 [Example 111, 6-({[2,4-Bis(trifluoromethyl)phenyl]carbonyl}amino)-N-(3-chloro-2-methylphenyl)-2-(methoxymethyl)-1H-benzimidazole-4-carboxamide hydrochloride] |  | 765 nM
16 | Cn1cnc2c(C(=O)NC3CCCCC3)cc(NC(=O)c3ccccc3C(F)(F)F)cc21 [Example 47, N-Cyclohexyl-1-methyl-6-({[2-(trifluoromethyl)phenyl]carbonyl}amino)-1H-benzimidazole-4-carboxamide] |  | 270 nM
17 | COCc1nc2c(C(=O)Nc3cccc(Cl)c3C)cc(NC(=O)c3cc(C#CCOC(C)(C)C)ccc3Cl)cc2[nH]1 [Example 117, 6-({[5-(3-tert-Butoxy-1-propynyl)-2-chlorophenyl]carbonyl}amino)-N-(3-chloro-2-methylphenyl)-2-(methoxymethyl)-1H-benz imidazole-4-carboxamide hydrochloride] |  | 584 nM
18 | COCc1nc2c(C(=O)Nc3nc4cc(Cl)ccc4o3)cc(NC(=O)c3ccccc3C(F)(F)F)cc2[nH]1 [Example 228, N-(5-Chloro-1,3-benzoxazol-2-yl)-2-(methoxymethyl)-6-({[2-(trifluoromethyl)phenyl]carbonyl}amino)-1H-benzimidazole-4-carboxamide hydrochloride] |  | 1.7 nM
19 | COCc1nc2c(C(=O)Nc3ccc4[nH]ccc4c3)cc(NC(=O)c3ccccc3C(F)(F)F)cc2[nH]1 [Example 224, N-(1H-Indol-5-yl)-2-(methoxymethyl)-6-({[2-(trifluoromethyl)phenyl]carbonyl}amino)-1H-benzimidazole-4-carboxamide] |  | 26.5 nM
20 | COCc1nc2c(C(=O)Nc3ccsc3)cc(NC(=O)c3ccccc3C(F)(F)F)cc2[nH]1 [Example 220, 2-(Methoxymethyl)-N-(thiophen-3-yl)-6-({[2-(trifluoromethyl)phenyl]carbonyl}amino)-1H-benzimidazole-4-carboxamide hydrochloride] |  | 8.6 nM
21 | COCc1nc2c(C(=O)Nc3cccs3)cc(NC(=O)c3ccccc3C(F)(F)F)cc2[nH]1 [Example 227, 2-(Methoxymethyl)-N-(thiophen-2-yl)-6-({[2-(trifluoromethyl)phenyl]carbonyl}amino)-1H-benzimidazole-4-carboxamide hydrochloride] |  | 0.1 nM
22 | O=C(Nc1cc(C(=O)NCc2ccccc2C(F)(F)F)c2nc[nH]c2c1)c1ccccc1C(F)(F)F [Example 1, N-[2-(Trifluoromethyl)benzyl]-6-({[2-(trifluoromethyl)phenyl]carbonyl}amino)-1H-benzimidazol-4-carboxamide] | 88.9 nM | 
23 | COCc1nc2c(C(=O)Nc3cccc(Cl)c3C)cc(NC(=O)c3cc(CCC(C)(C)O)ccc3Cl)cc2[nH]1 [Example 119, 6-({[2-Chloro-5-(3-hydroxy-3-methylbutyl)phenyl]carbonyl}amino)-N-(3-chloro-2-methylphenyl)-2-(methoxymethyl)-1H-benzimidazole-4-carboxamide hydrochloride] |  | 208 nM
24 | Cc1c(Cl)cccc1NC(=O)c1cc(NC(=O)c2ccccc2C(F)(F)F)cc2[nH]c(NCC3(C)COC3)nc12 [Example 159, N-(3-Chloro-2-methylphenyl)-2-{[(3-methyloxetan-3-yl)methyl]amino}-6-({[2-(trifluoromethyl)phenyl]carbonyl}amino)-1H-benzimidazole-4-carboxamide hydrochloride] |  | 403 nM
